Test results as given in publication PMC7725506, “Functional Diversification of SRSF Protein Kinase to Control Ubiquitin-Dependent Neurodevelopmental Signaling” (Developmental Cell, 2020).

What was measured:
SRPK2 = target: T1, SRPK2 (Mus musculus, UniProt O54781); test: SRPK2 immunoprecipitation kinase assay from inhibitor-treated mESCs with RNF12 as substrate; type: cell-based; conditions: mESCs pre-treated with 10 μM for 4 h
T1 construct: endogenous in cells; host or cells: mESCs (CCE line)
Experimental: SRSF phosphorylation, SRPK1, SRPK2, and ERK1/2 levels were determined by immunoblotting. Expected positions of SRSFs that are not detected are shown in gray. Quantification of SRSF phosphorylation (Right). Data represented as mean ± SEM (n = 4). […] Neuro 2a is a control for exon 16b exclusion in differentiated cells (Bottom). Data represented as mean ± SEM (n = 3). […] Exon 16 inclusion: (^∗∗∗∗) p < 0.0001, Exon 16b inclusion: (^∗) p = 0.0164, p = 0.0485, and p = 0.0489 (left to right). Ratio exon 16b/16: (^∗∗∗∗) p < 0.0001, (^∗∗∗) p = 0.0003. (C) SRPK substrates predicted using ScanProsite and grouped according to UniProt functions. (D) RNF12 phosphorylation sites detected by mass-spectrometry. LZL, leucine-zipper like; NLS, nuclear localization signal; NES, nuclear export signal; RING, RING E3 ubiquitin ligase catalytic domain. (E) CMGC family kinase copy numbers in mESCs determined by quantitative proteomics and represented using Kinoviewer. (F) CMGC kinase (200 mU) phosphorylation of the RNF12 SR-motif in vitro was determined by immunoblotting for RNF12 phospho-Ser214 and total RNF12. […] Normalized RNF12 Ser214 phosphorylation is shown below. Data represented as mean ± SEM (n = 3). […] RNF12 SR-motif phosphorylation was analyzed by immunoblotting for RNF12 phospho-Ser214 and RNF12. SRPK1 and SRPK2 levels are shown as a loading control, Related to Figure S1; Tables S1 and S2. […]

SRPK1 = SRPK1 (Homo sapiens, UniProt Q96SB4); type: biochemical; conditions: in vitro, RNF12 phospho-Ser214 immunoblot quantified; read-out: IC50, inhibition of RNF12 phosphorylation by SRPK1
Sequence of SRPK1 (Q96SB4 whole entry): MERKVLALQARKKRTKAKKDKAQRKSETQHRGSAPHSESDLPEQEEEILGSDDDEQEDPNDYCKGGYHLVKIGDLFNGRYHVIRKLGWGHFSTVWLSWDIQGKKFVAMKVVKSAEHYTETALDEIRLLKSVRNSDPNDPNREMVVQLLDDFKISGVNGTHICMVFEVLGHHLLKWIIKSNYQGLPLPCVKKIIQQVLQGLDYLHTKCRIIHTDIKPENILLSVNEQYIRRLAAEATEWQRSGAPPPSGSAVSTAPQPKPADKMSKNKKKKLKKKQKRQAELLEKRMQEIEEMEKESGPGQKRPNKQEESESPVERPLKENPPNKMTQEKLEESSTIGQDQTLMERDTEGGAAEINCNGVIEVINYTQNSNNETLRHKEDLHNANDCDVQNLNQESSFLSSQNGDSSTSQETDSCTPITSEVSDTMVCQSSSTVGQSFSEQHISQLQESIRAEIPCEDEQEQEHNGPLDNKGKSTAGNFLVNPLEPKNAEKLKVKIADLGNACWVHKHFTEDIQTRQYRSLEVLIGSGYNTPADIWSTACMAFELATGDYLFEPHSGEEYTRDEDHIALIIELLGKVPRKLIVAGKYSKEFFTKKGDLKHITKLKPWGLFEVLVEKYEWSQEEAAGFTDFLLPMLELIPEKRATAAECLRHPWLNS
Experimental: Cells were lysed, and 1.5 mg of protein immunoprecipitated with 2 μg of SRPK1 or SRPK2 antibodies (BD Biosciences). Immunoprecipitates were then washed with lysis buffer supplemented with 500 mM NaCl and half of the sample was resuspended in loading buffer. The remainder was subjected to in vitro phosphorylation assay containing 0.5 μg RNF12 and 2 mM ATP in kinase buffer (50 mM Tris-HCl [pH 7.5], 0.1 mM EGTA, 10 mM MgCl2, 2 mM DTT) and incubated at 30°C for 30 min. […] For radioactive in vitro kinase assays, reactions were supplemented with 1 μCi γ-^32P ATP. Reactions were incubated at 30°C for 30 min in presence or absence of inhibitor as indicated and samples subjected to polyacrylamide electrophoresis and immunoblot or Coomassie blue staining and signal detected via ECL, infrared detection or autoradiography.
Supplemental Figure Legends
(Related to Figure 1). (A) Wild-type (WT) mESCs were analysed for protein copy number by absolute quantitative proteomics. […]
Data are represented as mean ± S.E.M. (n=3). […] ND = not detected. (B) Inhibition of RNF12 phosphorylation in vitro by SRPK1 and SRPK2 in the presence of varying concentrations of the indicated SRPK inhibitors was determined by immunoblotting for RNF12 phospho-Ser214 (Left). […] Immunoblots were quantified to generate SRPK inhibitor dose-response curves for inhibition of RNF12 phosphorylation by SRPK1 and SRPK2 in vitro (Right). […]

RNF12 SR-motif = RNF12 SR-motif phosphorylation in mESCs by phos-tag immunoblotting; type: cell-based, mouse; conditions: 4 h
Source text: RNF12 4xSA = S212A/S214A/S227A/S229A. (B) Rlim^−^/y mESCs were transfected with the indicated RNF12 constructs and lysates treated with λ-phosphatase and analyzed by phos-tag immunoblotting for RNF12. Unphosphorylated recombinant RNF12 is included as a control. […] RNF12 4xSA is included as an unphosphorylated control. […] (F) Phosphorylated peptides detected by mass spectrometry following in vitro phosphorylation of RNF12 by SRPK1. pS, phospho-serine. (G) Autoradiography of RNF12 WT or S212A/S214A/S227A/S229A (4xSA) following a radioactive kinase reaction with SRPK1, SRPK2, or SRPK3. RNF12 protein is detected by Coomassie staining. (H) Srpk1^+/+ and Srpk1^−/− mESCs were transfected with control or SRPK2 siRNA and RNF12 SR-motif phosphorylation analyzed by phos-tag immunoblotting for RNF12. SRPK2, SRPK1, RNF12, and ERK1/2 levels were determined by immunoblotting. Related to Figure S2; Tables S3 and S4.
All compounds were diluted in DMSO and mESCs treated with 10 μM inhibitor for 4 h prior lysis unless indicated otherwise. […] For proteasome inhibition mESCs were treated with 10 μM MG132 (Sigma Aldrich) for 6 h. All chemicals are listed in the Key Resource Table.
Phos-tag analyses were performed by loading protein samples containing 10 mM MnCl2 in 8% polyacrylamide gels containing 50 μM Phos-tag reagent (MRC-PPU reagents and services) and 0.1 mM MnCl2. After electrophoresis, gels were washed three times for 10 mins in Transfer buffer (48 mM Tris, 39 mM Glycine, 20% Methanol) supplemented with 20 mM EDTA. Proteins were then transferred to Nitrocellulose membranes, blocked and probed with the indicated antibodies. All protein signals were quantified using Image Studio (LI-COR Biosciences) or Image Lab software (Bio-Rad). Primary antibodies are listed in the Key Resource Table. […]
SR-motif phosphorylation of HA-immunoprecipitated RNF12 analysed by phos-tag immunoblotting.
HA-RNF12 levels are shown as a control. Fully phosphorylated (4-P) and unphosphorylated (0-P) RNF12 SR-motif is indicated by open (○) and closed (●) circles respectively.
Data are represented as mean ± S.D. (n=3). (C) RNF12 expressing mESCs were treated with 10 […]
immunoblotting. HA-RNF12 and ERK1/2 levels are shown as a control. (D) RNF12 expressing […]
5 h (+ wash-out). RNF12 phosphorylation was analysed via phos-tag immunoblotting. ERK1/2 levels are shown as a loading control. (E) Multiple Srpk1-/- and Srpk2-/- mESC clones were […]

T1 sequence (O54781 whole entry): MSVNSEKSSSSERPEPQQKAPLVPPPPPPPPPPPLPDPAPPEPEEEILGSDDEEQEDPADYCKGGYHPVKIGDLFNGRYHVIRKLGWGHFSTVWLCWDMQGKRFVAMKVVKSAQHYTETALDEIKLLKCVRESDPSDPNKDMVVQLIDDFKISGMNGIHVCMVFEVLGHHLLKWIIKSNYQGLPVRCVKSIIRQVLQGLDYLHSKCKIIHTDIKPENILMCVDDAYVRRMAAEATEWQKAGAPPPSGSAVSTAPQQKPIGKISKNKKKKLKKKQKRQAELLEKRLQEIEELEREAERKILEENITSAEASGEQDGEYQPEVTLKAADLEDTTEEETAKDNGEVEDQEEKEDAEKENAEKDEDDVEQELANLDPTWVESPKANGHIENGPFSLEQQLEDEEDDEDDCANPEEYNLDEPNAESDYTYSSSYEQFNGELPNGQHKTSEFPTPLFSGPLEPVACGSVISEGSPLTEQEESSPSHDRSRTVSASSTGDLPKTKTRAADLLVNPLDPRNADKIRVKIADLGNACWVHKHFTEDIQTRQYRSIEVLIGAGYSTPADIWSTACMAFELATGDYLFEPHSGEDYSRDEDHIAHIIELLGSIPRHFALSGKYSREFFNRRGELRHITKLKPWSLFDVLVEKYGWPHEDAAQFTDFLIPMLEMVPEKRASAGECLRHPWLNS

CCc1cc2c(cc1-c1cccc(S(=O)(=O)F)c1)C(C)(C)c1[nH]c3cc(C#N)ccc3c1C2=O [SRPKIN-1]
inhibition of SRPK2 in vivo (ability of immunoprecipitates to phosphorylate RNF12) (SRPK2): potently inhibited | IC50 (SRPK1): 15.2 nM | Ser214 phosphorylation of the high-mobility form of RNF12 (RNF12 SR-motif; 10 μM, HA-RNF12 immunoprecipitates, phos-tag and phospho-Ser214 multiplex immunoblot): completely dephosphorylated | concentration leading to RNF12 SR-motif de-phosphorylation (as low as) (RNF12 SR-motif): 1 µM
